These results are taken from US11850234B2, “Enhancement of cancer treatment efficiency via the sphingosine-1-phosphate pathway” (priority 2017, dated 2023).

In data set [1] the test system is breast cancer metastatic cell line. Particulars: 10 μM of S1P co-administered; cited from earlier work.
Data set [2] deals with pancreatic adenocarcinoma. Briefly: Overall survival of pancreatic adenocarcinoma patients under gemcitabine chemotherapy, by plasmatic S1P concentration. The data set is classed as in vivo, human.
Data set [3] has as its system CAM-grafted pancreas, lung and ovarian tumors. Briefly: Neoadjuvant effect in the CAM (Chicken Chorioallantoic Model) with grafted tumors. The settings on record: compared to CAM-grafted tumors not previously treated with the neoadjuvants. The class given is in vivo. On the procedure: The neoadjuvant effect of benzylphthalazine and imidazole derivatives according to the present invention are assessed for their neoadjuvant effect against pancreas, lung and ovarian tumors.
The neoadjuvant effect is evaluated using the CAM (Chicken Chorioallantoic Model) as described by Sliwinska et al. (Sliwinska et al., Angiogenesis, 2014, 14(4), 779-804).

Take `CCCCCCCCCCCCC/C=C/[C@@H](O)[C@@H](N)COP(=O)(O)O` [S1P, Sphingosine-1-phosphate]: in data set [1], the “effect on cytotoxicity of docetaxel, doxorubicin and cyclophosphamide” value was “increased the cytotoxicity”.

Consider `Nc1ccn([C@@H]2O[C@H](CO)[C@@H](O)C2(F)F)c(=O)n1` [gemcitabine], for which the overall survival median entry in data set [2] (conventional gemcitabine chemotherapy, plasmatic S1P higher than 650 nM versus lower, FIG. 3) is given as “better overall survival median”. In data set [2] (patients having a high plasmatic S1P concentration (>650 nM), FIG. 5), the overall survival is 12.3 months. Also, the “cytotoxic effect against CAM-grafted tumors pretreated with neoadjuvant” value in data set [3] was “enhanced”.

Regarding `CC(=O)O[C@H]1C(=O)[C@@]2(C)[C@H]([C@H](OC(=O)c3ccccc3)[C@]3(O)C[C@H](OC(=O)[C@H](O)[C@@H](NC(=O)c4ccccc4)c4ccccc4)C(C)=C1C3(C)C)[C@]1(OC(C)=O)CO[C@@H]1C[C@@H]2O` [paclitaxel], in data set [3], the “cytotoxic effect against CAM-grafted tumors pretreated with neoadjuvant” value was “enhanced”.
